Data reported in patent publication US20210222184A1, “COMPOSITIONS AND METHODS FOR EXPRESSING TRANSGENES USING REGULATORY ELEMENTS FROM RUBISCO ACTIVASE GENES” (DOW AGROSCIENCES LLC, priority 2018, published 2021).

Experiments:
[1] = test system: tagRFP/AAD12 reporter gene; test: N. benthamiana leaf infiltration transient assay, RFP fluorescence; type: in vivo; conditions: for RFP Mean / RFP Median: Typhoon scanner fluorescence, leaves collected 6th day after infiltration, co-infiltrated with P19 silencing suppressor strain
From the text: Twenty four day old plants were used for infiltration.

GFP = GFP driven by AtUbi10/AtuOrf23 in both constructs; Typhoon scanner, 6th day after infiltration
Experimental: N. benthamiana plants were grown in the greenhouse under 16 hour photoperiod, 27° C./24° C. Twenty four day old plants were used for infiltration. The 3-4 top-most leaves were infiltrated using two Agrobacterium strains. The first strain was used in all infiltrations and carried the pDAB112236 construct expressing P19 silencing suppressor (Silhavy et al, (2002), EMBO J, 21, 3070-3080). The second Agrobacterium strain was either the experimental strain carrying pDAB116647 (SEQ ID NO:12) or a strain carrying the control pDAB110167 binary vector (FIG. 6). The pDAB110167 was identical to the pDAB116647 (SEQ ID NO:12) except that it had the reporter tagRFP/AAD12 fusion gene driven by the ScBV (Sugar Cane Bacilliform Virus) promoter fused to the Maize Streak Virus (MSV) 5′ leader engineered to contain maize Alcohol dehydrogenaseI (AdhI) gene intron 6 was paired with the StPinII terminator fragment (abbreviated ScBV/StPinII) to drive expression of the tagRFP/AAD12 reporter gene.
For N. benthamiana leaf infiltrations Agrobacterium strains containing either the pDAB116647 or pDAB110167 were mixed in equal proportions with an Agrobacterium strain that carried a plasmid that contained a gene encoding the P19 silencing suppressor Voinnet et al, (1999), Proc Natl Acad Sci USA, 96, 14147-14152. The mixing ratios were based on Optical Density (OD) readings. The density of all Agrobacterium cultures was adjusted to OD 2.0. After infiltration plants were maintained in a Conviron until leaves were collected on the 6th day after infiltration. Fluorescence data were collected using a Typhoon scanner from 30 leaves per construct with 3-5 one inch disks per leaf.
All samples from N. benthamiana were scanned on 3 channels: chlorophyll (488 nm blue laser, 670 nm BP30, 580 nm split), GFP (488 nm blue laser, 520 nm BP40, 580 nm split), and tagRFP (532 nm green laser, 580 nm BP30). The PhotoMultiplier Tube (PMT) setting used for N. benthamiana was 340/340/400. Background adjustments were made by subtracting calculated means for non-treated and empty vector controls from test treatment values. The values from each leaf were averaged to generate a mean fluorescence value.

[2] = test system: transgenic soybean plants; test: 2,4-D herbicide tolerance of T1 transgenic soybean plants; type: in vivo, Glycine max; conditions: 2240 g ae/ha 2,4-D foliar
From the text: To assess T1 Soybean Herbicide Tolerance, T1 seed generated from self-pollination of single copy T0 events were planted in an artificial soil mix (MetroMix 360™) contained in 4-inch square pots. The T1 generation is a segregating population of the homozygous, hemizygous and non-transgenic plants. To eliminate the null individuals, the T1 population received a foliar application of 411 g active ingredient (ai)/ha glufosinate ammonium (Liberty® 280) when plants reached the first trifoliate leaf stage. Four days after application (DAA) surviving plants were sampled for molecular analysis to determine transgene zygosity and to confirm transgene copy number.
For each event, 8 homozygous and 8 hemizygous plants were sampled for protein analyses, and the following day (third trifoliate stage), half of the plants received a foliar application of 2240 g acid equivalent (ae)/ha 2,4-D dimethylamine (DMA) salt (Weedar® 64). The remaining plants received no spray application. Some plants were also sprayed with deionized water as a sprayer application control. In addition to the transformed events, the soybean variety, ‘Maverick’, was included in each treatment as a non-transformed control.
Foliar applications were made with a Mandel track sprayer set to deliver a spray solution at 187 L/ha to a spray area of 0.503 m^2 using an 8002E nozzle and a spray height of 18 inches above the plant canopy. Plant response to the 2,4-D application was evaluated at 5 hours after application (HAA) and 1, 7, and 14 DAA. Data were collected by assessment of visual injury and/or growth reduction as compared to untreated controls on a scale of 0% to 100% with 0% corresponding to no injury or growth reduction and 100% corresponding to complete plant death. Plants were maintained at 28° C./25° C. (day/night) under a 14 h photoperiod and sub-irrigated with water or fertilizer as needed.

| Substance | RFP Mean [1] | RFP Median [1] | GFP Mean (GFP) | GFP Median (GFP) | % Injury Mean 1 DAA ([2]; Hemi) [%] | % Injury Mean 5 HAA ([2]; Hemi) [%] | % Injury Mean 7 DAA ([2]; Hemi) [%] | % Injury Mean 14 DAA ([2]; Hemi) [%] | % Injury Mean 1 DAA ([2]; Homo) [%] | % Injury Mean 5 HAA ([2]; Homo) [%] | % Injury Mean 7 DAA ([2]; Homo) [%] | % Injury Mean 14 DAA ([2]; Homo) [%] | RFP fluorescence relative to the control (pDAB110167) construct ([1]; mean and median, p-Value <0.0001) |
| --- | --- | --- | --- | --- | --- | --- | --- | --- | --- | --- | --- | --- | --- |
| pDAB110167: control binary vector; tagRFP/AAD12 driven by ScBV promoter, MSV 5' leader with AdhI intron 6, StPinII terminator [reference compound] | 24746396 | 21007653 | 166966846 | 148985095 | – | – | – | – | – | – | – | – | – |
| pDAB116632: plasmid with GmRubAct promoter and 5' UTR fused to AAD12 gene, terminated with GmRubAct terminator | – | – | – | – | 18.13 | 15.0 | 4.38 | 3.75 | 12.0 | 8.67 | 2.33 | 1.67 | – |
| pDAB116647: binary vector with tagRFP/AAD12 reporter gene driven by GmRubAct promoter, 5' UTR and terminator | 40982229 | 39409305 | 161956091 | 156309149 | – | – | – | – | – | – | – | – | significantly higher |
